Series [1] concerns A/chicken/Bangli/BBVD-562/2007, A/chicken/West Java Tangerang/PTB6/2008, A/chicken/West Java/Tja-31/2008, A/chicken/Payakumbuh/BPPVRII-307/2007 neuraminidases. The class given is biochemical.
Series [2] addresses clade 2.1 HPAI H5N1 isolates from Indonesia (neuraminidase) (Influenza A virus, UniProt F5HQR3). The class given is biochemical, HPAI H5N1 avian influenza virus.
Series [3] has as its system clade 2.1 viruses circulating in Indonesia (neuraminidase). To be noted: cited from earlier work.
For series [4] the following is noted: in vivo; cited from earlier work.
The target of series [5] is A/chicken/Cambodia/CMB07.71LC1/2007 neuraminidase (Influenza A virus, UniProt E1B5P8). In kind it is biochemical, HPAI H5N1 avian influenza virus.
For series [6], the target named is A/chicken/Suphanburi/2509/2004 neuraminidase (Influenza A virus (H5N1), UniProt Q5SDA6). The class given is biochemical, HPAI H5N1 avian influenza virus.
The target in series [7] is A/chicken/Saraburi/10713/2005 neuraminidase (Influenza A virus (A/chicken/Saraburi/10713/2005(H5N1)), UniProt Q2LDC8). The class given is biochemical, HPAI H5N1 avian influenza virus.
Series [8] deals with clade 1.1 HPAI H5N1 isolates from Thailand (neuraminidase) (Influenza A virus, UniProt Q5SDA6). In kind it is biochemical, HPAI H5N1 avian influenza virus. The note with it: read-out: IC50, Mean (SD).
Series [9] has as its target A/chicken/Cambodia/CMB07.71LC2/2007 neuraminidase (Influenza A virus, UniProt E1B5P8). The class given is biochemical, HPAI H5N1 avian influenza virus.
The target of series [10] is A/chicken/Bangli/BBVD-563/2007 neuraminidase (clade 2.1 wild type) (Influenza A virus, UniProt F1SW80). In kind it is biochemical, HPAI H5N1 avian influenza virus.
Series [11] addresses A/chicken/Cambodia/CMB07.71LC3/2007 neuraminidase (Influenza A virus (A/chicken/Cambodia/CMB07.71LC3/2007(H5N1)), UniProt E1B5P8). In kind it is biochemical, HPAI H5N1 avian influenza virus.
For series [12], the target named is A/chicken/Cambodia/CMB07.71LC4/2007 neuraminidase (Influenza A virus (A/chicken/Cambodia/CMB07.71LC4/2007(H5N1)), UniProt E1B5P8). The class given is biochemical, HPAI H5N1 avian influenza virus.
Series [13] deals with clade 1 isolates from Viet Nam and Cambodia (neuraminidase). To be noted: cited from earlier work.
The target of series [14] is A/duck/Cambodia/CMB07.72/2007 neuraminidase (Influenza A virus, UniProt E1B5P8). In kind it is biochemical, HPAI H5N1 avian influenza virus.
The target in series [15] is A/chicken/Wates/126/2005 neuraminidase (clade 2.1 reference) (Influenza A virus (H5N1), UniProt Q1W1F4). In kind it is biochemical, HPAI H5N1 avian influenza virus. To be noted: read-out: IC50, Mean (SD).
For series [16], the target named is A/chicken/Vietnam/08/2004 neuraminidase (clade 1.1 wild type) (Influenza A virus (H5N1), UniProt Q6DPL2). In kind it is biochemical, HPAI H5N1 avian influenza virus.
[17] abbreviates: read-out: 60 min IC50, Preincubation step (+).
[18] abbreviates: read-out: 60 min IC50, Preincubation step (−).

Structures are written as SMILES. “And” between values parts separate entries of the source, which are not always exact repeats. Identical values can stand only once. Like-named read-outs stand apart in the source and are kept apart here.

`CC(=O)N[C@H]1[C@H]([C@H](O)[C@H](O)CO)OC(C(=O)O)=C[C@@H]1N=C(N)N` [Zanamivir, zanamivir]: the “Binding kinetics (in words)” value in series [1] was “None of these viruses demonstrated loss of slow binding”. Further, the “Extreme High Outliers, number of viruses” value in series [2] was 0 (>7.2) and 0 (>5.6).

For the molecule `CCOC(=O)C1=C[C@@H](OC(CC)CC)[C@H](NC(C)=O)[C@@H](N)C1` [Oseltamivir, oseltamivir], the IC50 in series [3] is 11 nM and 11.5 nM; in [5] it was 0.77 nM; in [6] it was 0.61 nM; in series [7], 0.68 nM; in series [8] it was 0.97 nM; in [9], 0.78 nM. Further, the IC50 was 19.6 nM in [10] (setting [17]); 21.4 nM in series [10] (setting [18]); above 63.7 nM in series [2] (read-out: Extreme High Outliers, IC50 cut-off); 21.2 to 28.2 nM and 20.4 to 26.4 nM in [2] (read-out: IC50, IQR (25th-75th percentile)); 24.9 nM and 24.4 nM in [2] (read-out: IC50, Median); 10.6 to 349 nM and 12.6 to 62.4 nM in series [2] (read-out: IC50, range). In addition, the IC50 in [2] (read-out: IC50s of extreme outliers) is 63 to 350 nM; in series [2] (read-out: IC50s of many of the outliers), above 50 nM; in series [2] (read-out: Mean and median IC50) it was around 25 nM; in [2] (read-out: Median IC50), 25 nM; in series [2] (read-out: Mild High Outliers, IC50 cut-off) it was above 42.4 nM; in series [11], 0.51 nM. Moreover, the IC50 was 0.75 nM in series [12]; 0.5 nM in series [13]; 0.65 nM in series [14]; 15.9 nM and 19.8 nM in [15]. In series [4], the Levels in plasma is 400 to 1200 nmol/L. Further, the Levels in saliva result in series [4] is “less than 5 % of plasma levels”. Besides, the “Binding kinetics (in words)” value is “no longer slow binding” in series [1]; “partial loss of slow binding, and faster dissociation” in series [10].

As for `CCC(CC)[C@H](NC(C)=O)[C@@H]1[C@H](O)[C@@H](C(=O)O)C[C@H]1N=C(N)N` [Peramivir, peramivir], the entries for the “Ratio (−)/(+) of 60 min IC50s” value in series [16] and in series [10] were 8.9 and 9, respectively. Besides, the IC50 worked out at 0.7 nM in series [16] (setting [17]), 6.2 nM in [16] (setting [18]), 0.6 nM in series [10] (setting [17]) and 5.4 nM in series [10] (setting [18]). For the same molecule, the “Binding kinetics (in words)” value in [1] is recorded as “None of these viruses demonstrated loss of slow binding”.
